8 molecules from patent US12358999B2, “Protein recognizing drug moiety of antibody-drug conjugate” (DAIICHI SANKYO COMPANY, LIMITED, priority 2018, dated 2025) can be followed below.

Counter-ions that a name gives are not always drawn.

The test system of one assay is mouse antibody 1A3. The assay is described as follows: Competitive inhibition with HER2-ADC (I), chemical structure recognized by mouse antibody 1A3 (Gyrolab). The note with it: compound 1 and 100 μg/mL dilution solutions; response at HER2-ADC (I) 250 ng/mL. The assay is classed as binding. The text has this:
The chemical structure to be recognized by mouse antibody 1A3 was checked by competitive inhibition with HER2-ADC (I) using Gyrolab xP workstation (GYROS PROTEIN Technologies). As the compound for use in competitive inhibition, compound (1), compound (2), compound (7), compound (8), compound (9), compound (10), compound (11), Topotecan and Rubitecan were selected.
As the capture reagent, mouse antibody 1A3 labeled with biotin by a labeling kit (ChromaLink Biotin Protein LABELING Kit, Solulink) was used. The concentration thereof was controlled to be 700 nM with 0.1% PS20-containing PBS. The compounds for use in competitive inhibition, compound (1), compound (2), compound (7), compound (8), compound (9), compound (10), compound (11), Topotecan and Rubitecan were separately dissolved in DMSO. The solutions each was diluted with 10% or 20% DMSO in Rexxip HN (GYROS PROTEIN Technologies) to prepare 0, 1 and 100 μg/mL dilution solutions. To each of them, the 700 nM mouse antibody 1A3 solution was added in an equal amount. The mixture was stirred and allowed to react at room temperature in a dark place for one hour or more. The concentration of HER2-ADC (I) was controlled with Rexxip HN to be 0, 0.244, 0.977, 3.91, 15.6, 62.5, 250 and 1000 ng/mL. As the detection reagent, Mouse Anti-(Anti-HER2 Ab) idiotype Ab (13C1) (IBL) was labeled by DyLight650 (registered trademark) labeling kit and put in use. The concentration thereof was controlled with Rexxip F (GYROS PROTEIN Technologies) to be 10 nM. The above solution was set at Gyrolab xP workstation and measurement was carried out by use of Gyrolab Bioaffy 200 at 200-3W-002-A (PMT5). The regression analysis was carried out by use of Gyrolab Evaluator 3.4.0.24 in 4-parametric logistic model (weight: Response). The calibration curve of HER2-ADC (I) was prepared per concentration of the competitive inhibition compound. The inhibition rate (%) was calculated by comparing the response at an HER2-ADC (I) concentration of 250 ng/mL to that of the case where no compound was added (concentration 0 ng/mL).

The test system of assay [1] is sera of BALB/c mice and BDF1 mice after immunization. The assay is described as follows: Inhibition ELISA of immunized mouse sera on immobilized antigen protein (2). The assay is classed as binding. As to conditions: sera diluted 50000 fold; compound 12.5-100 μg/mL. On the procedure: To the sera of BALB/c mice (4 individuals) and BDF1 mice (4 individuals) after immunization through four administrations, compound (6), compound (7) and compound (1) as positive controls and compound (8) as a negative control were added and the unabsorption rate to antigen protein (2) was calculated. The mouse sera diluted to 50000 fold and compound (6), compound (8), compound (7) and compound (1), which were prepared to have a concentration of 12.5, 25, 50 and 100 μg/mL, were mixed and allowed to react at 4° C. overnight, and then, added to ELISA immunoplates having the antigen protein (2) immobilized thereon and allowed to react at 37° C. for 30 minutes. After washing, anti-mouse IgG-HRP was allowed to react at 37° C. for 30 minutes. After washing, an OPD solution was added. After termination of color development, absorbance at 490 nm was measured. The unabsorption rate was calculated in accordance with the following expression: Unabsorption rate(%)=(a/b)×100
a: Absorbance of positive control or negative control at an addition concentration of 12.5 μg/mL
b: Absorbance of a sample not containing positive control or a sample not containing a negative control

With `CC[C@@]1(O)C(=O)OCc2c1cc1n(c2=O)Cc2cc3c([N+](=O)[O-])cccc3nc2-1` [Rubitecan], the “competitive inhibition of recognition of mouse antibody 1A3 to HER2-ADC (I) (inhibition rate, FIG. 41)” value (“competitive inhibition” for short) in the assay with mouse antibody 1A3 is given as “did not exhibit competitive inhibition”. As for `CC[C@@]1(O)C(=O)OCc2c1cc1n(c2=O)Cc2cc3c(CN(C)C)c(O)ccc3nc2-1` [Topotecan], the “competitive inhibition” value in the assay on mouse antibody 1A3 is listed as “did not exhibit competitive inhibition”. For the molecule `CC[C@@]1(O)C(=O)OCc2c1cc1n(c2=O)Cc2c-1nc1cc(F)c(C)c3c1c2[C@@H](NC(=O)CCCNC(=O)CCCCCCC(=O)ON1C(=O)CCC1=O)CC3` [compound (6), 8-[(2,5-dioxopyrrolidin-1-yl)oxy]-N-(4-{[(1S,9S)-9-ethyl-5-fluoro-9-hydroxy-4-methyl-10,13-dioxo-2,3,9,10,13,15-hexahydro-1H,12H-benzo[de]pyrano[3′,4′:6,7]indolizino[1,2-b]quinolin-1-yl]amino}-4-oxobutyl)-8-oxooctane Amide], the “inhibition effect on binding of mouse sera to antigen protein (2) (unabsorption rate)” value (shortened to “inhibition effect on binding”) in assay [1] was “high inhibition effect”. Take `CC[C@]1(O)c2cc3n(c(=O)c2COC1O)Cc1c-3nc2cc(F)c(C)c3c2c1[C@@H](NC(=O)CCCN)CC3` (stereo partly drawn) [compound (7), 4-amino-N-[(1S,9S)-9-ethyl-5-fluoro-9,10-dihydroxy-4-methyl-13-oxo-2,3,9,10,13,15-hexahydro-1H,12H-benzo[de]pyrano[3′,4′:6,7]indolizino[1,2-b]quinolin-1-yl] butanamide Trifluoroacetate]: the “competitive inhibition” value in the assay with mouse antibody 1A3 is recorded as “strong competitive inhibition”. Moreover, in assay [1], the “inhibition effect on binding” value is on record as “in some individuals have a high inhibition effect”. Regarding `NCCCC(=O)NC1CCCCC1` [compound (8), 4-amino-N-cyclohexyl-butanamide Hydrochloride], the “competitive inhibition” value in the assay with mouse antibody 1A3 is on record as “did not exhibit competitive inhibition”. In assay [1], the “inhibition effect on binding” value was “in none of the plasmas, a high inhibition effect”. In the case of `CC[C@@]1(O)C(=O)OCc2c1cc1n(c2=O)Cc2c-1nc1ccc(C)c3c1c2CCC3` [compound (9)], the “competitive inhibition” value in the assay with mouse antibody 1A3 was “strong competitive inhibition”. `CC[C@@]1(O)C(=O)OCc2c1cc1n(c2=O)Cc2c-1nc1cccc3c1c2C(N)CC3` (stereo partly shown) [compound (10)]: in the assay on mouse antibody 1A3, the “competitive inhibition” value was “did not exhibit competitive inhibition”.

For `CC[C@@]1(O)C(=O)OCc2c1cc1n(c2=O)Cc2c-1nc1cc(F)c(CO)c3c1c2[C@@H](N)CC3` [compound (11)], the “competitive inhibition” value in the assay with mouse antibody 1A3 is listed as “did not exhibit competitive inhibition”.
